The target of one assay is T1, hNPR-C (Homo sapiens, UniProt P17342).
T1 sequence (P17342 27-541): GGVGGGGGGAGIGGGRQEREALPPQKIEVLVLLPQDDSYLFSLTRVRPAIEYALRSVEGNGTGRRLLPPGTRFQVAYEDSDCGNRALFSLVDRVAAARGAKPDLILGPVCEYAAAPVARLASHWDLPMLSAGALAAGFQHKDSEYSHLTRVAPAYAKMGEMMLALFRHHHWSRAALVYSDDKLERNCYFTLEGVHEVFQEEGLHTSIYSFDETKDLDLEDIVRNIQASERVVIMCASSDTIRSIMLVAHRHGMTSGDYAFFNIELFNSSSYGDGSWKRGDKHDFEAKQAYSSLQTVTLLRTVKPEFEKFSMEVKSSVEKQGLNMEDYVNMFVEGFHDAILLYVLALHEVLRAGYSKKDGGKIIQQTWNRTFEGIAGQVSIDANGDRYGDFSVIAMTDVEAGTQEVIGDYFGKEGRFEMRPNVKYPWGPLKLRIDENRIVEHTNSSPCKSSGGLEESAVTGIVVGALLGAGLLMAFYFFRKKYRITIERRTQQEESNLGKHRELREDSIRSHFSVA
The experiment in a line: Binding affinity for clearance receptor hNPR-C. From the text: For assay systems to measure binding of hANF and the compounds of this invention to hNPR-C see: Schank, D. B., et al., Biochem. Biophys. Res. Comm. 127:433-442 (1985); Scarborough, R. M., J. Biol. Chem. 261:12960-12964 and WO 90/01940.

A further assay has as its target T2, hNPR-A (Homo sapiens, UniProt P16066).
T2 sequence (P16066 33-1061): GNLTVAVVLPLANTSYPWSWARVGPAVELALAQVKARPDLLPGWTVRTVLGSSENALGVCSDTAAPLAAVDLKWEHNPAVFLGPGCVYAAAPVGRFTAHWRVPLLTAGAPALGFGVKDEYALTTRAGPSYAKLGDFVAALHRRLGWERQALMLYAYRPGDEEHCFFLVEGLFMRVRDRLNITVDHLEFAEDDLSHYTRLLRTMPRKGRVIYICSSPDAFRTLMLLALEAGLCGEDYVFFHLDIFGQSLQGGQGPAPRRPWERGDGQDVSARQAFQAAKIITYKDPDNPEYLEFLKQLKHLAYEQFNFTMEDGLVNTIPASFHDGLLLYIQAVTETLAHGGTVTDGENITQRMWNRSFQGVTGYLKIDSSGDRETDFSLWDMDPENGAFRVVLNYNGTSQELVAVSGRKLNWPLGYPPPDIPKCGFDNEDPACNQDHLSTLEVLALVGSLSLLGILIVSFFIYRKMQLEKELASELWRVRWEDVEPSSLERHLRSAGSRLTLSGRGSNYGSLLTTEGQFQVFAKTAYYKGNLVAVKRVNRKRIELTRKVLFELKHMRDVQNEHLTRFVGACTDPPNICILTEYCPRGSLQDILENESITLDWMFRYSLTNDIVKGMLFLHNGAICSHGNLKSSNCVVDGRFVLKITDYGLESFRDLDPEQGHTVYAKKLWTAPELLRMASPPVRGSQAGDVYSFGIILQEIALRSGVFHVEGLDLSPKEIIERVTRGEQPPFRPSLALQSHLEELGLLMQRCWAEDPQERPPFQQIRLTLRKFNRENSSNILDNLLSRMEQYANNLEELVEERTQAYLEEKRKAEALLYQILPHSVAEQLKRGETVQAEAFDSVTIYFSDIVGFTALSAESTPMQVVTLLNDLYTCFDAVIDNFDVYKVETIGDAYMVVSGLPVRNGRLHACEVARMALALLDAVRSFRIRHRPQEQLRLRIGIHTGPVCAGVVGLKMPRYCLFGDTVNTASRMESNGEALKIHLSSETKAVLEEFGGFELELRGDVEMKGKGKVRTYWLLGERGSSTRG
The experiment in a line: Binding affinity for hNPR-A (competitive displacement of I^125 labeled wild-type ANF). As to conditions: Table I; read-out: Binding Affinity IC50 (pM) hNPR-A.

Where [1] appears, read: Table I, read-out: Binding Affinity IC50 (pM) hNPR-C.

Like-named read-outs stand apart in the source and are kept apart here. Bridge positions count the residues as written; N and C are the ends. Square brackets hold non-standard residues; d marks the D form. Peptide text beside a SMILES is read from it. hCys = N[C@@H](CCS)C(=O)O

What is called IC50 is the concentration that gives 50% inhibition. For the compound `CC[C@H](C)[C@@H]1NC(=O)[C@H](CCCNC(=N)N)NC(=O)[C@H](CC(=O)O)NC(=O)[C@H]([C@@H](C)CC)NC(=O)[C@H](CCCNC(=N)N)NC(=O)CNC(=O)CNC(=O)[C@H](Cc2ccccc2)NC(=O)[C@@H](NC(=O)[C@H](CO)NC(=O)[C@H](CO)NC(=O)[C@H](CCCNC(=N)N)NC(=O)[C@H](CCCNC(=N)N)NC(=O)[C@H](CC(C)C)NC(=O)[C@@H](N)CO)CSSC[C@@H](C(=O)N[C@@H](CC(N)=O)C(=O)N[C@@H](CO)C(=O)N[C@@H](Cc2ccccc2)C(=O)N[C@@H](CCCNC(=N)N)C(=O)N[C@@H](Cc2ccc(O)cc2)C(=O)O)NC(=O)CNC(=O)[C@H](CC(C)C)NC(=O)CNC(=O)[C@H](CO)NC(=O)[C@H](CCC(N)=O)NC(=O)[C@H](C)NC(=O)[C@H](CCCNC(=N)N)NC1=O` [ANF24], the half-inhibitory concentration (IC50) at hNPR-C (setting [1]) came to 5640 pM.

Turning to `CC[C@H](C)[C@@H]1NC(=O)[C@H](CO)NC(=O)[C@H](CC(=O)O)NC(=O)[C@H]([C@@H](C)CC)NC(=O)[C@H](CCCNC(=N)N)NC(=O)CNC(=O)CNC(=O)[C@H](Cc2ccccc2)NC(=O)[C@@H](NC(=O)[C@H](CO)NC(=O)[C@H](CO)NC(=O)[C@H](CCCNC(=N)N)NC(=O)[C@H](CCCNC(=N)N)NC(=O)[C@H](CC(C)C)NC(=O)[C@@H](N)CO)CSSC[C@@H](C(=O)N[C@@H](CC(N)=O)C(=O)N[C@@H](CO)C(=O)N[C@@H](Cc2ccccc2)C(=O)N[C@@H](CCCNC(=N)N)C(=O)N[C@@H](Cc2ccc(O)cc2)C(=O)O)NC(=O)CNC(=O)[C@H](CC(C)C)NC(=O)CNC(=O)[C@H](CO)NC(=O)[C@H](CCC(N)=O)NC(=O)[C@H](C)NC(=O)[C@H](CCCNC(=N)N)NC1=O` [ANF25] (H-SLRRSSCFGGRIDSIRAQSGLGCNSFRY-OH; disulfide 7-23), the values for the half-maximal inhibitory concentration (IC50) on hNPR-A and at hNPR-C (setting [1]) were 56 pM and 3310 pM, respectively. Regarding `CC[C@H](C)[C@@H]1NC(=O)[C@H](CCCNC(=N)N)NC(=O)[C@H](CC(=O)O)NC(=O)[C@H]([C@@H](C)CC)NC(=O)[C@H](CO)NC(=O)CNC(=O)[C@H]([C@@H](C)O)NC(=O)[C@H](Cc2ccccc2)NC(=O)[C@@H](NC(=O)[C@H](CO)NC(=O)[C@H](CO)NC(=O)[C@H](CCCNC(=N)N)NC(=O)[C@H](CCCNC(=N)N)NC(=O)[C@H](CC(C)C)NC(=O)[C@@H](N)CO)CSSC[C@@H](C(=O)N[C@@H](CC(N)=O)C(=O)N[C@@H](CO)C(=O)N[C@@H](Cc2ccccc2)C(=O)N[C@@H](CCCNC(=N)N)C(=O)N[C@@H](Cc2ccc(O)cc2)C(=O)O)NC(=O)CNC(=O)[C@H](CC(C)C)NC(=O)CNC(=O)[C@H](CO)NC(=O)[C@H](CCC(N)=O)NC(=O)[C@H](C)NC(=O)[C@H](CCCNC(=N)N)NC1=O` [ANF27], the IC50 at hNPR-C (setting [1]) is 1e+06 pM.

As to `CC[C@H](C)[C@@H]1NC(=O)[C@H](CCCNC(=N)N)NC(=O)[C@H](CC(=O)O)NC(=O)[C@H]([C@@H](C)CC)NC(=O)[C@H](CO)NC(=O)CNC(=O)[C@H]([C@@H](C)O)NC(=O)[C@H](Cc2ccccc2)NC(=O)[C@@H](NC(=O)[C@H](CO)NC(=O)[C@H](CO)NC(=O)[C@H](CCCNC(=N)N)NC(=O)[C@H](CCCNC(=N)N)NC(=O)[C@H](CC(C)C)NC(=O)[C@@H](N)CO)CSSC[C@@H](C(=O)N[C@@H](CC(N)=O)C(=O)N[C@@H](CO)C(=O)N[C@@H](Cc2ccccc2)C(=O)N[C@@H](CCCNC(=N)N)C(=O)N[C@@H](Cc2ccc(O)cc2)C(=O)O)NC(=O)CNC(=O)[C@H](CC(C)C)NC(=O)CNC(=O)[C@H](CO)NC(=O)[C@@H]2CCCN2C(=O)[C@H](C)NC(=O)[C@H](CCCNC(=N)N)NC1=O` [ANF31] (H-SLRRSSCFTGSIDRIRAPSGLGCNSFRY-OH; disulfide 7-23), the IC50 on hNPR-A came to 52 pM; on hNPR-C (setting [1]), 3.21e+06 pM. On to `CC[C@H](C)[C@@H]1NC(=O)[C@H](CCCNC(=N)N)NC(=O)[C@H](CC(=O)O)NC(=O)[C@H](CCSC)NC(=O)[C@H](CO)NC(=O)CNC(=O)[C@H]([C@@H](C)O)NC(=O)[C@H](Cc2ccccc2)NC(=O)[C@@H](NC(=O)[C@H](CO)NC(=O)[C@H](CO)NC(=O)[C@H](CCCNC(=N)N)NC(=O)[C@H](CCCNC(=N)N)NC(=O)[C@H](CC(C)C)NC(=O)[C@@H](N)CO)CSSC[C@@H](C(=O)N[C@@H](CC(N)=O)C(=O)N[C@@H](CO)C(=O)N[C@@H](Cc2ccccc2)C(=O)N[C@@H](CCCNC(=N)N)C(=O)N[C@@H](Cc2ccc(O)cc2)C(=O)O)NC(=O)CNC(=O)[C@H](CC(C)C)NC(=O)CNC(=O)[C@H](CO)NC(=O)[C@H](CCC(N)=O)NC(=O)[C@H](C)NC(=O)CNC1=O` [ANF50] (H-SLRRSSCFTGSMDRIGAQSGLGCNSFRY-OH; disulfide 7-23), for which the concentration for half-maximal inhibition (IC50) on hNPR-A was 570 pM; at hNPR-C (setting [1]), 251000 pM. `CC[C@H](C)[C@@H]1NC(=O)[C@H](CCCNC(=N)N)NC(=O)[C@H](CC(=O)O)NC(=O)[C@H](CCSC)NC(=O)[C@@H]2CCCN2C(=O)[C@H](CCCNC(=N)N)NC(=O)[C@H](CCC(=O)O)NC(=O)[C@H](Cc2ccccc2)NC(=O)[C@@H](NC(=O)[C@H](CO)NC(=O)[C@H](CO)NC(=O)[C@H](CCCNC(=N)N)NC(=O)[C@H](CCCNC(=N)N)NC(=O)[C@H](CC(C)C)NC(=O)[C@@H](N)CO)CSSC[C@@H](C(=O)N[C@@H](CC(N)=O)C(=O)N[C@@H](CO)C(=O)N[C@@H](Cc2ccccc2)C(=O)N[C@@H](CCCNC(=N)N)C(=O)N[C@@H](Cc2ccc(O)cc2)C(=O)O)NC(=O)CNC(=O)[C@H](CC(C)C)NC(=O)CNC(=O)[C@H](CO)NC(=O)[C@H](CCC(N)=O)NC(=O)[C@H](C)NC(=O)CNC1=O` [ANF51] (H-SLRRSSCFERPMDRIGAQSGLGCNSFRY-OH; disulfide 7-23): the IC50 on hNPR-A turned out to be 4550 pM; at hNPR-C (setting [1]), 32200 pM. In the case of `CC[C@H](C)[C@@H]1NC(=O)[C@H](CO)NC(=O)[C@H](CC(=O)O)NC(=O)[C@H](CC(C)C)NC(=O)[C@H](CO)NC(=O)CNC(=O)[C@H]([C@@H](C)O)NC(=O)[C@H](Cc2ccccc2)NC(=O)[C@@H](NC(=O)[C@H](CO)NC(=O)[C@H](CO)NC(=O)[C@H](CCCNC(=N)N)NC(=O)[C@H](CC(=O)O)NC(=O)[C@H](CC(C)C)NC(=O)[C@@H](N)CO)CSSC[C@@H]2NC(=O)CNC(=O)[C@H](CC(C)C)NC(=O)CNC(=O)[C@H](CO)NC(=O)[C@H](CCSSCC[C@@H](C(=O)O)NC(=O)[C@H](CCCNC(=N)N)NC(=O)[C@H](Cc3ccccc3)NC(=O)[C@H](CO)NC(=O)[C@H](CC(N)=O)NC2=O)NC(=O)[C@H](C)NC(=O)[C@H](CCCNC(=N)N)NC1=O` [ANF70] (H-SLDRSSCFTGSLDSIRA[hCys]SGLGCNSFR[hCys]-OH; disulfide 7-23, 18-28), the concentration for half-maximal inhibition (IC50) at hNPR-A came out at 3300 pM. At hNPR-C, `CC[C@H](C)[C@@H]1NC(=O)[C@H](CCCNC(=N)N)NC(=O)[C@H](CC(=O)O)NC(=O)[C@H]([C@@H](C)CC)NC(=O)[C@H](CO)NC(=O)CNC(=O)[C@@H](C)NC(=O)[C@H](Cc2ccccc2)NC(=O)[C@@H](NC(=O)[C@H](CO)NC(=O)[C@H](CO)NC(=O)[C@H](CCCNC(=N)N)NC(=O)[C@H](CCCNC(=N)N)NC(=O)[C@H](CC(C)C)NC(=O)[C@@H](N)CO)CSSC[C@@H](C(=O)N[C@@H](CC(N)=O)C(=O)N[C@@H](CO)C(=O)N[C@@H](Cc2ccccc2)C(=O)N[C@@H](CCCNC(=N)N)C(=O)N[C@@H](Cc2ccc(O)cc2)C(=O)O)NC(=O)CNC(=O)[C@H](CC(C)C)NC(=O)CNC(=O)[C@H](CO)NC(=O)[C@H](CCC(N)=O)NC(=O)[C@H](C)NC(=O)[C@H](CCCNC(=N)N)NC1=O` [ANF78] returned a half-inhibitory concentration (IC50) of 8640 pM.

These data come from US5665704A, “Receptor specific atrial natriuretic peptides” (Genentech, Inc., priority 1995, dated 1997).
